Source: patent US20260001914A1, “MACROCYCLIC PEPTIDES TARGETING KRAS” (Merck Sharp & Dohme LLC, priority 2022, published 2026)
*1 amine or outer side, *2 acyl side, *3 side chain or, on linkers, in order; H or OH if unused. Where a SMILES comes first, the peptide text is derived from it. Bridges are numbered along the chain shown (N, C = ends). [ ]: non-standard residue; d: D form. cBu(1-CO,cis-3-CH2NH) = O=C([C@H]1C[C@@H](CN[*:1])C1)[*:2]; NMeNva(5-imidazol-1-yl) = CN[C@@H](CCCn1ccnc1)C(=O)O; Phe(4-guanidino) = N=C(N)Nc1ccc(C[C@H](N)C(=O)O)cc1; Ala(pyrimidin-5-yl) = N[C@@H](Cc1cncnc1)C(=O)O; Ala(thiazol-2-yl) = N[C@@H](Cc1nccs1)C(=O)O; NMePhe(3-Me) = CN[C@@H](Cc1cccc(C)c1)C(=O)O; X25 = O=C([C@H](Cc1ccc(F)nc1)N[*:1])[*:2]; X3 = CN([C@@H](Cc1cncnc1)C(=O)[*:2])[*:1]; Lys(N3) = [N-]=[N+]=NCCCC[C@H](N)C(=O)O; X15 = O=C([C@H](Cc1cnccc1F)N[*:1])[*:2]; NMeAha = CN[C@@H](CCN=[N+]=[N-])C(=O)O; Phe(4-Me) = Cc1ccc(C[C@H](N)C(=O)O)cc1; X35 = CN([C@@H](CCCF)C(=O)[*:2])[*:1]; Phe(2-F) = N[C@@H](Cc1ccccc1F)C(=O)O; NMe3Pal = CN[C@@H](Cc1cccnc1)C(=O)O; X1 = O=C(C12CC(CN[*:1])(C1)C2)[*:2]; X53 = C[C@@H](CSCC(=O)[*:2])N[*:1]; Ala(cPr) = N[C@@H](CC1CC1)C(=O)O; NMeF = CN[C@@H](Cc1ccccc1)C(=O)O; PhLac = O=C(O)[C@@H](O)Cc1ccccc1; X9 = CCCC[C@H](O[*:1])C(=O)[*:2]; 3Pal = N[C@@H](Cc1cccnc1)C(=O)O; d3Pal = N[C@H](Cc1cccnc1)C(=O)O; X58 = O=C(C1CC(N[*:1])C1)[*:2]; Ahp(2) = CCCCC[C@H](N)C(=O)O; Cba = N[C@@H](CC1CCC1)C(=O)O; hLeu = CC(C)CC[C@H](N)C(=O)O; αMeC = C[C@](N)(CS)C(=O)O; NMeA = CN[C@@H](C)C(=O)O; Nle = CCCC[C@H](N)C(=O)O

molecular target: KRAS-G12D protein (Homo sapiens, UniProt P01116, G12D); assay: SOS-mediated nucleotide exchange assay (BODIPY-GDP / Tb-streptavidin TR-FRET); assay type: biochemical
Sequence (P01116 1-188 isoform P01116-2 G12D): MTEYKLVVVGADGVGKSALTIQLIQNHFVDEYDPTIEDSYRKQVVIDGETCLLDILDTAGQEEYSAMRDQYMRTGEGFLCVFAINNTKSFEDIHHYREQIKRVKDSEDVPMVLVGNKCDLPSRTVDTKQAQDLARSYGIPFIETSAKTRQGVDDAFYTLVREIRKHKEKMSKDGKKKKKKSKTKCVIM

Question: `CCCC[C@@H]1NC(=O)[C@H](Cc2cccnc2)NC(=O)[C@H](CCCn2ccnc2)N(C)C(=O)[C@H](Cc2ccccc2)N(C)C(=O)[C@H]2C[C@@H](CNC(=O)[C@H](Cc3cccnc3)N(C)C(=O)[C@H](CCCCN=[N+]=[N-])NC(=O)[C@H](Cc3ccccc3F)NC1=O)C2` [compound 157, cyclo(NMeF-NMeNvalmid-3Pal-Nle-Phe2F-LysN3-NMe3Pal-c3amCblc)] (cyclo([3Pal][Nle][Phe(2-F)][Lys(N3)][NMe3Pal][cBu(1-CO,cis-3-CH2NH)][NMeF][NMeNva(5-imidazol-1-yl)])) was tested. Which EC50 did it give?
Answer: 7760 nM

Question: For `CCCCC[C@@H]1NC(=O)[C@H](Cc2ccc(OC)cc2)NC(=O)[C@H](CC2CCC2)NC(=O)[C@H](Cc2cccnc2)NC(=O)[C@H](CCCNC(=N)N)NC(=O)[C@H](Cc2ccccc2)NC(=O)CSC[C@@](C)(C(N)=O)NC(=O)[C@H](Cc2cncnc2)N(C)C1=O` [compound 376, cyclo(F-R-3Pal-cBuA-TyrOMe-Ahp-NMeAlaPyrim-aMeCl-ClAc)] ({CH2CO}-FR[3Pal][Cba]Y(Me)[Ahp(2)][X3][αMeC]-NH2; thioether N-8), which EC50 is on record?
Answer: 26.6 nM

Question: How did the EC50 turn out when `CCCCC[C@@H]1NC(=O)[C@H](Cc2ccc(OC)cc2)NC(=O)[C@H](CC2CCC2)NC(=O)[C@H](Cc2ccoc2)NC(=O)[C@H](CCCNC(=N)N)NC(=O)[C@H](Cc2ccccc2)NC(=O)CSC[C@@](C)(C(N)=O)NC(=O)[C@H](Cc2ccccc2)N(C)C1=O` [compound 371, cyclo(F-R-Ala3Fur-cBuA-TyrOMe-Ahp-NMeF-aMeCl-ClAc)] was run?
Answer: 82.6 nM

Question: For `CCCC[C@@H]1NC(=O)[C@H](Cc2cccnc2)NC(=O)[C@H](CCCF)N(C)C(=O)[C@H](Cc2ccccc2)OC(=O)C23CC(CNC(=O)[C@H](Cc4cccnc4)N(C)C(=O)[C@H](CCCC)NC(=O)[C@H](Cc4ccccc4F)NC1=O)(C2)C3` [compound 239, cyclo(FLac-NMeNvaF-3Pal-Nle-Phe2F-Nle-NMe3Pal-amBCP)] (cyclo([3Pal][Nle][Phe(2-F)][Nle][NMe3Pal][X1][PhLac][X35])), which EC50 is on record?
Answer: 297 nM

Question: `CCCC[C@@H]1NC(=O)[C@H](Cc2cnc(C#N)nc2)NC(=O)[C@H](C)N(C)C(=O)[C@H](Cc2ccccc2)OC(=O)C23CC(CNC(=O)[C@H](Cc4ccccc4)N(C)C(=O)[C@H](CCCC)NC(=O)[C@H](Cc4ccccc4F)NC1=O)(C2)C3` (single isomer, unassigned) [compound 315, cyclo(FLac-NMeA-AlaPyrim4CN-Nle-Phe2F-Nle-NMeF-amBCP)] was tested. Which EC50 did it give?
Answer: 5.28 nM

Question: `CCCC[C@@H]1NC(=O)[C@H](Cc2cccnc2)NC(=O)[C@H](C)N(C)C(=O)[C@H](Cc2ccc(F)nc2)NC(=O)C23CC(CNC(=O)[C@H](Cc4cccnc4)N(C)C(=O)[C@H](CCCC)NC(=O)[C@H](Cc4ccccc4F)NC1=O)(C2)C3` [compound 165, cyclo(4F3Pal-NMeA-3Pal-Nle-Phe2F-Nle-NMe3Pal-amBCP)] (cyclo([3Pal][Nle][Phe(2-F)][Nle][NMe3Pal][X1][X25][NMeA])) was tested. Which EC50 did it give?
Answer: 1780 nM

Question: With `CCCC[C@@H]1NC(=O)[C@H](Cc2ccc(OC)cc2)NC(=O)[C@H](CC2CCC2)NC(=O)[C@@H](Cc2cccnc2)NC(=O)[C@H](CCCNC(=N)N)NC(=O)[C@H](Cc2ccccc2)NC(=O)CSC[C@H](C)NC(=O)[C@H](Cc2ccccc2)N(C)C1=O` [compound 180, cyclo(F-R-d3Pal-cBuA-TyrOMe-Nle-NMeF-Smcysteamine-ClAc)] (cyclo([Cba]Y(Me)[Nle][NMeF][X53]FR[d3Pal])) as the compound, how does the EC50 read?
Answer: 37.8 nM

Question: For `CCCC[C@@H]1NC(=O)[C@H](Cc2ccccc2F)NC(=O)[C@H](CCCC)OC(=O)[C@H](Cc2cccnc2)NC(=O)[C@H](CCN=[N+]=[N-])N(C)C(=O)[C@H](Cc2ccccc2)NC(=O)C23CC(CNC(=O)[C@H](Cc4cccnc4)N(C)C1=O)(C2)C3` [compound 250, cyclo(F-NMeDabN3-3Pal-NleLac-Phe2F-Nle-NMe3Pal-amBCP)] (cyclo(F[NMeAha][3Pal][X9][Phe(2-F)][Nle][NMe3Pal][X1])), which EC50 is on record?
Answer: 3880 nM

Question: Which EC50 does the source give for `Cc1cccc(C[C@H]2C(=O)NCC34CC(C3)(C4)C(=O)O[C@@H](Cc3ccccc3)C(=O)N(C)[C@@H](C)C(=O)N[C@@H](Cc3cncnc3)C(=O)N[C@@H](CC3CC3)C(=O)N[C@@H](Cc3cnccc3F)C(=O)N[C@@H](CCC(C)C)C(=O)N2C)c1` [compound 278, cyclo(FLac-NMeA-PyrimAla-cPrA-3Pal6F-hL-NMePhe3Me-amBCP)] (cyclo([Ala(cPr)][X15][hLeu][NMePhe(3-Me)][X1][PhLac][NMeA][Ala(pyrimidin-5-yl)])) here?
Answer: 2 nM

Question: With `CCCC[C@@H]1NC(=O)[C@H](COC)NC(=O)[C@H](CC2CCC2)NC(=O)[C@H](Cc2cccnc2)NC(=O)[C@H](CCCNC(=N)N)NC(=O)[C@H](Cc2ccccc2)NC(=O)CSC[C@@](C)(C(N)=O)NC(=O)[C@H](Cc2ccccc2)N(C)C1=O` [compound 52, cyclo(F-R-3Pal-cBuA-SerOMe-Nle-NMeF-aMeCl-ClAc)] ({CH2CO}-FR[3Pal][Cba]S(Me)[Nle][NMeF][αMeC]-NH2; thioether N-8) as the compound, how does the EC50 read?
Answer: 943 nM

Question: For `CCCC[C@@H]1NC(=O)[C@H](Cc2ccc(NC(=N)N)cc2)NC(=O)[C@H](CCCNC(=N)N)NC(=O)[C@H](Cc2ccccc2)NC(=O)C2CC(C2)NC(=O)[C@H](Cc2ccccc2)N(C)C(=O)[C@H](CCCC)NC(=O)[C@H](Cc2ccc(OC)cc2)NC1=O` [compound 92, cyclo(F-R-Phe4Gn-Nle-TyrOMe-Nle-NMeF-acBu)] (cyclo(FR[Phe(4-guanidino)][Nle]Y(Me)[Nle][NMeF][X58])), which EC50 is on record?
Answer: 13.9 nM

Question: With `CCCC[C@@H]1NC(=O)[C@H](Cc2cccnc2)NC(=O)[C@H](C)N(C)C(=O)[C@H](Cc2ccccc2)OC(=O)C23CC(CNC(=O)[C@H](Cc4cccnc4)N(C)C(=O)[C@H](CCCC)NC(=O)[C@H](Cc4ccccc4F)NC1=O)(C2)C3` [compound 244, cyclo(FLac-NMeA-3Pal-Nle-Phe2F-Nle-NMe3Pal-amBCP)] (cyclo([3Pal][Nle][Phe(2-F)][Nle][NMe3Pal][X1][PhLac][NMeA])) as the compound, how does the EC50 read?
Answer: 36 nM

Question: `CCCC[C@@H]1NC(=O)[C@H](Cc2cccnc2)NC(=O)[C@H](C)N(C)C(=O)[C@H](Cc2ccc(C)cc2)NC(=O)C23CC(CNC(=O)[C@H](Cc4cccnc4)N(C)C(=O)[C@H](CCCC)NC(=O)[C@H](Cc4ccccc4F)NC1=O)(C2)C3` [compound 170, cyclo(Phe4Me-NMeA-3Pal-Nle-Phe2F-Nle-NMe3Pal-amBCP)] (cyclo([3Pal][Nle][Phe(2-F)][Nle][NMe3Pal][X1][Phe(4-Me)][NMeA])) was tested. Which EC50 did it give?
Answer: 91.1 nM

Question: Which EC50 does the source give for `CCCC[C@@H]1NC(=O)[C@H](Cc2cncnc2)NC(=O)[C@H](CCCn2ccnc2)N(C)C(=O)[C@H](Cc2ccccc2)OC(=O)C23CC(CNC(=O)[C@H](Cc4ccccc4)N(C)C(=O)[C@H](CCCC)NC(=O)[C@H](Cc4ccccc4F)NC1=O)(C2)C3` (single isomer, unassigned) [compound 223, cyclo(FLac-NMeNvalmid-PyrimAla-Nle-Phe2F-Nle-NMeF-amBCP)] here?
Answer: 25.3 nM

Question: `CCCC[C@@H]1NC(=O)[C@H](Cc2nccs2)NC(=O)[C@H](C)N(C)C(=O)[C@H](Cc2ccccc2)OC(=O)C23CC(CNC(=O)[C@H](Cc4ccccc4)N(C)C(=O)[C@H](CCCC)NC(=O)[C@H](Cc4ccccc4F)NC1=O)(C2)C3` [compound 320, cyclo(FLac-NMeA-2TzA-Nle-Phe2F-Nle-NMeF-amBCP)] (cyclo([NMeA][Ala(thiazol-2-yl)][Nle][Phe(2-F)][Nle][NMeF][X1][PhLac])) was tested. Which EC50 did it give?
Answer: 4360 nM
